Read-outs that look alike come from different tables or passages of the source.
System: panel of nearly 500 cancer cell lines
Experiment: Cancer Cell Line Encyclopedia profiling, 3-day CellTiter-Glo
Assay type: cell-based
Settings: read-out: IC50

## CC(=O)c1c(C)c2cnc(Nc3ccc(N4CCNCC4)cn3)nc2n(C2CCCC2)c1=O [Palbociblib]
Loximvi (skin)
  IC50: > 8 µM
ls123 (large_intestine)
  IC50: > 8 µM
ls513 (large_intestine)
  IC50: 4.53 µM
lu99 (lung)
  IC50: 2.55 µM
ludlu1 (lung)
  IC50: > 8 µM
m059j (central_nervous_system)
  IC50: > 8 µM
malme3m (skin)
  IC50: > 8 µM
mc116 (haematopoietic_and_lymphoid_tissue)
  IC50: 8 µM
Mcas (ovary)
  IC50: > 8 µM
mcf7 (breast)
  IC50: > 8 µM
mdamb157 (breast)
  IC50: > 8 µM
mdamb175vii (breast)
  IC50: > 8 µM
mdamb415 (breast)
  IC50: 6.74 µM
mdamb436 (breast)
  IC50: > 8 µM
mdamb453 (breast)
  IC50: > 8 µM
mdamb468 (breast)
  IC50: > 8 µM
meg01 (haematopoietic_and_lymphoid_tissue)
  IC50: > 8 µM
Melho (skin)
  IC50: > 8 µM
Messa (soft_tissue)
  IC50: > 8 µM
mfe280 (endometrium)
  IC50: > 8 µM
mg63 (bone)
  IC50: > 8 µM
miapaca2 (pancreas)
  IC50: > 8 µM
Mino (haematopoietic_and_lymphoid_tissue)
  IC50: 1.4 µM
Mj (haematopoietic_and_lymphoid_tissue)
  IC50: 4.62 µM
mkn7 (stomach)
  IC50: > 8 µM
mkn45 (stomach)
  IC50: > 8 µM
mkn74 (stomach)
  IC50: > 8 µM
Moggccm (central_nervous_system)
  IC50: > 8 µM
mpp89 (pleura)
  IC50: > 8 µM
msto211h (pleura)
  IC50: 5.5 µM
ncih23 (lung)
  IC50: > 8 µM
ncih28 (pleura)
  IC50: 6.05 µM
ncih211 (lung)
  IC50: > 8 µM
ncih226 (lung)
  IC50: > 8 µM
ncih322 (lung)
  IC50: > 8 µM
ncih358 (lung)
  IC50: > 8 µM
ncih441 (lung)
  IC50: > 8 µM
ncih520 (lung)
  IC50: > 8 µM
ncih522 (lung)
  IC50: > 8 µM
ncih647 (lung)
  IC50: > 8 µM
ncih650 (lung)
  IC50: > 8 µM
ncih661 (lung)
  IC50: > 8 µM
ncih727 (lung)
  IC50: > 8 µM
ncih747 (large_intestine)
  IC50: > 8 µM
ncih810 (lung)
  IC50: > 8 µM
ncih1048 (lung)
  IC50: > 8 µM
ncih1092 (lung)
  IC50: > 8 µM
ncih1184 (lung)
  IC50: > 8 µM
ncih1341 (lung)
  IC50: > 8 µM
ncih1355 (lung)
  IC50: > 8 µM
ncih1373 (lung)
  IC50: > 8 µM
ncih1563 (lung)
  IC50: > 8 µM
ncih1568 (lung)
  IC50: > 8 µM
ncih1573 (lung)
  IC50: > 8 µM
ncih1581 (lung)
  IC50: > 8 µM
ncih1648 (lung)
  IC50: > 8 µM
ncih1650 (lung)
  IC50: > 8 µM
ncih1651 (lung)
  IC50: > 8 µM
ncih1666 (lung)
  IC50: > 8 µM
ncih1693 (lung)
  IC50: > 8 µM
ncih1694 (lung)
  IC50: > 8 µM
ncih1792 (lung)
  IC50: > 8 µM
ncih1793 (lung)
  IC50: 2.04 µM
ncih1869 (lung)
  IC50: > 8 µM
ncih1915 (lung)
  IC50: > 8 µM
ncih1944 (lung)
  IC50: 4.49 µM
ncih1975 (lung)
  IC50: > 8 µM
ncih2009 (lung)
  IC50: > 8 µM
ncih2023 (lung)
  IC50: > 8 µM
ncih2030 (lung)
  IC50: > 8 µM
ncih2052 (pleura)
  IC50: > 8 µM
ncih2085 (lung)
  IC50: > 8 µM
ncih2087 (lung)
  IC50: > 8 µM
ncih2122 (lung)
  IC50: > 8 µM
ncih2170 (lung)
  IC50: > 8 µM
ncih2172 (lung)
  IC50: > 8 µM
ncih2228 (lung)
  IC50: > 8 µM
ncih2444 (lung)
  IC50: 6.71 µM
ncih2452 (pleura)
  IC50: > 8 µM
ncih3255 (lung)
  IC50: > 8 µM
ncin87 (stomach)
  IC50: > 8 µM
nihovcar3 (ovary)
  IC50: > 8 µM
nugc3 (stomach)
  IC50: > 8 µM
nugc4 (stomach)
  IC50: 1.61 µM
oc314 (ovary)
  IC50: > 8 µM
oc315 (ovary)
  IC50: > 8 µM
oc316 (ovary)
  IC50: > 8 µM
ociaml2 (haematopoietic_and_lymphoid_tissue)
  IC50: 1.53 µM
ocum1 (stomach)
  IC50: > 8 µM
oe21 (oesophagus)
  IC50: 4.75 µM
oe33 (oesophagus)
  IC50: > 8 µM
oncodg1 (ovary)
  IC50: > 8 µM
ons76 (central_nervous_system)
  IC50: > 8 µM
ov90 (ovary)
  IC50: > 8 µM

Source: paper PMC6219668 (Oncotarget, 2018)
